We go through four compounds from ChEMBL document CHEMBL1201862, “PubChem BioAssay data set” (2004).

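The compound was tested at five concentrations on cells cultured in 96-well plates, with a 48-hour exposure period. GI50 = concentration required for 50% inhibition of growth.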 The source made the active and inactive calls. Rule as the data show it: active = GI50 up to about 1.1 µM and inactive = higher. Starred links: 1 amine or outer side, 2 acyl side, 3 side chain; linkers in the order of their positions; H or OH if unused. Non-standard residues stand in square brackets, D forms with d. Residues, ends and D or L forms follow the SMILES beside them. *: point of attachment. X34 = CC(=O)N(C)SCC(N[*:1])C(=O)[*:2]; Cbz = O=C(OCc1ccccc1)*; Bn = c1ccc(C*)cc1; For = O=C*

Some test systems named below: SK-MEL-28; NCI/ADR-RES; RPMI-8226; SN12C; HCT-15; SNB-19; NCI-H522; SW-620; EKVX; SK-MEL-5; UACC-257; OVCAR-4; BT-549; SF-268; DU-145; UACC-62; U-251; OVCAR-5; KM12; SF-539.
Experiment in all cases: NCI-60 cell line screen, 48 h

As for `CC[N+](CC)(CCNCC(N)=O)CC(N)=O`, the GI50 was > 10 µM (inactive) in the assay on SK-MEL-28; > 10 µM (inactive) in the assay on NCI/ADR-RES; > 10 µM (inactive) in the assay on RPMI-8226; > 10 µM (inactive) in the assay with SN12C; above 10 µM in the assay with HCT-15; > 10 µM (inactive) in the assay with SNB-19. The GI50 with NCI-H522, in the assay on SW-620, in the assay with EKVX, in the assay with SK-MEL-5, with UACC-257 and with OVCAR-4 was > 10 µM (inactive) each time. Further, the GI50 in the assay with BT-549, in the assay on SF-268, with DU-145, in the assay on UACC-62, with U-251 and in the assay on OVCAR-5 was > 10 µM (inactive) throughout. Moreover, the GI50 in the assay on KM12 and with SF-539 was > 10 µM (inactive) in each case.
For the compound `O=C(CC(NC(=O)C(F)(F)F)C(=O)O)OCc1ccccc1` (stereo not given), the GI50 with SK-MEL-28 was > 100 µM (inactive); with NCI/ADR-RES it was > 100 µM (inactive); with RPMI-8226 it was > 100 µM (inactive); in the assay with SN12C, > 100 µM (inactive); with HCT-15, above 100 µM; with SNB-19 it was > 100 µM (inactive). Also, the GI50 with NCI-H522, in the assay with SW-620, with EKVX, in the assay on SK-MEL-5, in the assay on UACC-257 and with OVCAR-4 was > 100 µM (inactive) throughout. The GI50 with BT-549, in the assay on SF-268, in the assay with DU-145, with UACC-62, with U-251 and with OVCAR-5 was > 100 µM (inactive) each time. Also, the GI50 with KM12 and in the assay with SF-539 was > 100 µM (inactive) in each case.
Regarding `NS(=O)(=O)c1ccc(NC(=S)N/C=C2\C(=O)Nc3ccccc3C2=O)cc1`, the GI50 was > 100 µM (inactive) in the assay with SK-MEL-28; > 100 µM (inactive) with NCI/ADR-RES; > 100 µM (inactive) in the assay with RPMI-8226; > 100 µM (inactive) with SN12C; above 100 µM in the assay on HCT-15; > 100 µM (inactive) with SNB-19. The GI50 in the assay with NCI-H522, in the assay on SW-620, with EKVX, in the assay with SK-MEL-5, in the assay with UACC-257 and in the assay with OVCAR-4 was > 100 µM (inactive) in each case. For the same compound, the GI50 with BT-549, in the assay with SF-268, with DU-145, in the assay on UACC-62, with U-251 and with OVCAR-5 was > 100 µM (inactive) in each case. Further, the GI50 in the assay on KM12 and with SF-539 was > 100 µM (inactive) each time.
As for `CC(=O)N(C)SCC(NC(=O)C(Cc1ccccc1)NC(=O)OCc1ccccc1)C(=O)NC(Cc1ccccc1)C(=O)NC(Cc1cn(C=O)c2ccccc12)C(=O)NC(CCCCNC(=O)OCc1ccccc1)C(=O)NC(C(=O)NC(CSN(C)C(C)=O)C(=O)NC(C(N)=O)C(C)OCc1ccccc1)C(C)OCc1ccccc1` (stereo not given) (Cbz-F[X34]FW(For)K(Cbz)T(Bn)[X34]T(Bn)-NH2; configuration not given here), the GI50 in the assay on SK-MEL-28 was > 100 µM (inactive); in the assay with NCI/ADR-RES, > 100 µM (inactive); in the assay on RPMI-8226 it was > 100 µM (inactive); in the assay with SN12C, > 100 µM (inactive); in the assay with HCT-15, above 100 µM; in the assay with SNB-19, 18.7 µM (inactive). Also, the GI50 is 87.9 µM (inactive) in the assay on NCI-H522; > 100 µM (inactive) in the assay with SW-620; > 100 µM (inactive) in the assay on EKVX; > 100 µM (inactive) in the assay with SK-MEL-5; > 100 µM (inactive) in the assay with UACC-257; 54.2 µM (inactive) in the assay on OVCAR-4. For the same compound, the GI50 in the assay on BT-549 is 21.1 µM (inactive); with SF-268, > 100 µM (inactive); with DU-145, > 100 µM (inactive); in the assay with UACC-62, 84.9 µM (inactive); with U-251 it was 32.2 µM (inactive); in the assay with OVCAR-5, > 100 µM (inactive). In addition, the GI50 with KM12 is > 100 µM (inactive); in the assay with SF-539 it was 44 µM (inactive).
